Columns and labels:
Assay in all cases: SelectScreen LanthaScreen Binding
Conditions in all cases: INX-0315 at 100nM
AMPK (A2/B2/G2) = molecular target: T1, AMPK (A2/B2/G2) (Homo sapiens, UniProt P54646)
T1 construct: purchased Thermo Fisher Scientific SelectScreen (plus Nanosyn / Reaction Biology for CDK/cyclin lines)
Outline: (§1)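 Under the service's preestablished protocols, INX-315 was tested initially at 100 nmol/L with 1% DMSO present, and subsequently across ten concentrations from 1 µmol/L to 0.0495 nmol/L.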

BRAF V599E = molecular target: T2, BRAF V599E (Homo sapiens, UniProt P15056, V600E)
T2 construct: purchased Thermo Fisher Scientific SelectScreen (plus Nanosyn / Reaction Biology for CDK/cyclin lines)
Outline: as §1

CDK13/cyclin K = molecular target: T3, CDK13/cyclin K (Homo sapiens, UniProt Q14004)
T3 construct: purchased Thermo Fisher Scientific SelectScreen (plus Nanosyn / Reaction Biology for CDK/cyclin lines)
Outline: as §1

ALK T1151_L1152insT = molecular target: T4, ALK T1151_L1152insT (Homo sapiens, UniProt Q9UM73, INS1151T)
T4 construct: purchased Thermo Fisher Scientific SelectScreen (plus Nanosyn / Reaction Biology for CDK/cyclin lines)
Outline: as §1

TTK = molecular target: T5, TTK (Homo sapiens, UniProt P33981)
T5 construct: purchased Thermo Fisher Scientific SelectScreen (plus Nanosyn / Reaction Biology for CDK/cyclin lines)
Outline: as §1

ZAK = molecular target: T6, ZAK (Homo sapiens, UniProt Q9NYL2)
T6 construct: purchased Thermo Fisher Scientific SelectScreen (plus Nanosyn / Reaction Biology for CDK/cyclin lines)
Outline: as §1

ALK L1196M = molecular target: T7, ALK L1196M (Homo sapiens, UniProt Q9UM73, L1196M)
T7 construct: purchased Thermo Fisher Scientific SelectScreen (plus Nanosyn / Reaction Biology for CDK/cyclin lines)
Outline: as §1

KIT D816H = molecular target: T8, KIT D816H (Homo sapiens, UniProt P10721, D816H)
T8 construct: purchased Thermo Fisher Scientific SelectScreen (plus Nanosyn / Reaction Biology for CDK/cyclin lines)
Outline: as §1

AMPK (A2/B2/G1) = molecular target: T9, AMPK (A2/B2/G1) (Homo sapiens, UniProt P54646)
T9 construct: purchased Thermo Fisher Scientific SelectScreen (plus Nanosyn / Reaction Biology for CDK/cyclin lines)
Outline: as §1

TEC = molecular target: T10, TEC (Homo sapiens, UniProt P42680)
T10 construct: purchased Thermo Fisher Scientific SelectScreen (plus Nanosyn / Reaction Biology for CDK/cyclin lines)
Outline: as §1

KIT N822K = molecular target: T11, KIT N822K (Homo sapiens, UniProt P10721, N822K)
T11 construct: purchased Thermo Fisher Scientific SelectScreen (plus Nanosyn / Reaction Biology for CDK/cyclin lines)
Outline: as §1

TAOK3 (JIK) = molecular target: T12, TAOK3 (JIK) (Homo sapiens, UniProt Q9H2K8)
T12 construct: purchased Thermo Fisher Scientific SelectScreen (plus Nanosyn / Reaction Biology for CDK/cyclin lines)
Outline: as §1

BRSK2 = molecular target: T13, BRSK2 (Homo sapiens, UniProt Q8IWQ3)
T13 construct: purchased Thermo Fisher Scientific SelectScreen (plus Nanosyn / Reaction Biology for CDK/cyclin lines)
Outline: as §1

CDC7/DBF4 = molecular target: T14, CDC7/DBF4 (Homo sapiens, UniProt O00311)
T14 construct: purchased Thermo Fisher Scientific SelectScreen (plus Nanosyn / Reaction Biology for CDK/cyclin lines)
Outline: as §1

[1] = molecular target: T15, MAP3K7/MAP3K7IP1 (TAK1-TAB1) (Homo sapiens, UniProt O43318)
T15 construct: purchased Thermo Fisher Scientific SelectScreen (plus Nanosyn / Reaction Biology for CDK/cyclin lines)
Outline: as §1

DDR2 N456S = molecular target: T16, DDR2 N456S (Homo sapiens, UniProt Q16832, N456S)
T16 construct: purchased Thermo Fisher Scientific SelectScreen (plus Nanosyn / Reaction Biology for CDK/cyclin lines)
Outline: as §1

DAPK2 = molecular target: T17, DAPK2 (Homo sapiens, UniProt Q9UIK4)
T17 construct: purchased Thermo Fisher Scientific SelectScreen (plus Nanosyn / Reaction Biology for CDK/cyclin lines)
Outline: as §1

ERN1 = molecular target: T18, ERN1 (Homo sapiens, UniProt O75460)
T18 construct: purchased Thermo Fisher Scientific SelectScreen (plus Nanosyn / Reaction Biology for CDK/cyclin lines)
Outline: as §1

STK38 (NDR) = molecular target: T19, STK38 (NDR) (Homo sapiens, UniProt Q15208)
T19 construct: purchased Thermo Fisher Scientific SelectScreen (plus Nanosyn / Reaction Biology for CDK/cyclin lines)
Outline: as §1

PKN2 (PRK2) = molecular target: T20, PKN2 (PRK2) (Homo sapiens, UniProt Q16513)
T20 construct: purchased Thermo Fisher Scientific SelectScreen (plus Nanosyn / Reaction Biology for CDK/cyclin lines)
Outline: as §1

TGFBR2 = molecular target: T21, TGFBR2 (Homo sapiens, UniProt P37173)
T21 construct: purchased Thermo Fisher Scientific SelectScreen (plus Nanosyn / Reaction Biology for CDK/cyclin lines)
Outline: as §1

EPHA3 = molecular target: T22, EPHA3 (Homo sapiens, UniProt P29320)
T22 construct: purchased Thermo Fisher Scientific SelectScreen (plus Nanosyn / Reaction Biology for CDK/cyclin lines)
Outline: as §1

RIPK3 = molecular target: T23, RIPK3 (Homo sapiens, UniProt Q9Y572)
T23 construct: purchased Thermo Fisher Scientific SelectScreen (plus Nanosyn / Reaction Biology for CDK/cyclin lines)
Outline: as §1

ADCK3 = molecular target: T24, ADCK3 (Homo sapiens, UniProt Q8NI60)
T24 construct: purchased Thermo Fisher Scientific SelectScreen (plus Nanosyn / Reaction Biology for CDK/cyclin lines)
Outline: as §1

MLCK (MLCK2) = molecular target: T25, MLCK (MLCK2) (Homo sapiens, UniProt Q32MK0)
T25 construct: purchased Thermo Fisher Scientific SelectScreen (plus Nanosyn / Reaction Biology for CDK/cyclin lines)
Outline: as §1

NEK8 = molecular target: T26, NEK8 (Homo sapiens, UniProt Q86SG6)
T26 construct: purchased Thermo Fisher Scientific SelectScreen (plus Nanosyn / Reaction Biology for CDK/cyclin lines)
Outline: as §1

AAK1 = molecular target: T27, AAK1 (Homo sapiens, UniProt Q2M2I8)
T27 construct: purchased Thermo Fisher Scientific SelectScreen (plus Nanosyn / Reaction Biology for CDK/cyclin lines)
Outline: as §1

ERN2 = molecular target: T28, ERN2 (Homo sapiens, UniProt Q76MJ5)
T28 construct: purchased Thermo Fisher Scientific SelectScreen (plus Nanosyn / Reaction Biology for CDK/cyclin lines)
Outline: as §1

MYO3A (MYO3 alpha) = molecular target: T29, MYO3A (MYO3 alpha) (Homo sapiens, UniProt Q8NEV4)
T29 construct: purchased Thermo Fisher Scientific SelectScreen (plus Nanosyn / Reaction Biology for CDK/cyclin lines)
Outline: as §1

KIT A829P = molecular target: T30, KIT A829P (Homo sapiens, UniProt P10721, A829P)
T30 construct: purchased Thermo Fisher Scientific SelectScreen (plus Nanosyn / Reaction Biology for CDK/cyclin lines)
Outline: as §1

CDK11 (Inactive) = molecular target: T31, CDK11 (Inactive) (Homo sapiens, UniProt Q9BWU1)
T31 construct: purchased Thermo Fisher Scientific SelectScreen (plus Nanosyn / Reaction Biology for CDK/cyclin lines)
Outline: as §1

ABL1 H396P = molecular target: T32, ABL1 H396P (Homo sapiens, UniProt P00519, H396P)
T32 construct: purchased Thermo Fisher Scientific SelectScreen (plus Nanosyn / Reaction Biology for CDK/cyclin lines)
Outline: as §1

TNK2 (ACK) = molecular target: T33, TNK2 (ACK) (Homo sapiens, UniProt Q07912)
T33 construct: purchased Thermo Fisher Scientific SelectScreen (plus Nanosyn / Reaction Biology for CDK/cyclin lines)
Outline: as §1

KIT Y823D = molecular target: T34, KIT Y823D (Homo sapiens, UniProt P10721, Y823D)
T34 construct: purchased Thermo Fisher Scientific SelectScreen (plus Nanosyn / Reaction Biology for CDK/cyclin lines)
Outline: as §1

[2] = molecular target: T35, MAP2K6 (MKK6) S207E T211E (Homo sapiens, UniProt P52564, S207E/T211E)
T35 construct: purchased Thermo Fisher Scientific SelectScreen (plus Nanosyn / Reaction Biology for CDK/cyclin lines)
Outline: as §1

VRK2 = molecular target: T36, VRK2 (Homo sapiens, UniProt Q86Y07)
T36 construct: purchased Thermo Fisher Scientific SelectScreen (plus Nanosyn / Reaction Biology for CDK/cyclin lines)
Outline: as §1

CDK16 (PCTK1)/cyclin Y = molecular target: T37, CDK16 (PCTK1)/cyclin Y (Homo sapiens, UniProt Q00536)
T37 construct: purchased Thermo Fisher Scientific SelectScreen (plus Nanosyn / Reaction Biology for CDK/cyclin lines)
Outline: as §1

GAK = molecular target: T38, GAK (Homo sapiens, UniProt O14976)
T38 construct: purchased Thermo Fisher Scientific SelectScreen (plus Nanosyn / Reaction Biology for CDK/cyclin lines)
Outline: as §1

T29 sequence (Q8NEV4 whole entry): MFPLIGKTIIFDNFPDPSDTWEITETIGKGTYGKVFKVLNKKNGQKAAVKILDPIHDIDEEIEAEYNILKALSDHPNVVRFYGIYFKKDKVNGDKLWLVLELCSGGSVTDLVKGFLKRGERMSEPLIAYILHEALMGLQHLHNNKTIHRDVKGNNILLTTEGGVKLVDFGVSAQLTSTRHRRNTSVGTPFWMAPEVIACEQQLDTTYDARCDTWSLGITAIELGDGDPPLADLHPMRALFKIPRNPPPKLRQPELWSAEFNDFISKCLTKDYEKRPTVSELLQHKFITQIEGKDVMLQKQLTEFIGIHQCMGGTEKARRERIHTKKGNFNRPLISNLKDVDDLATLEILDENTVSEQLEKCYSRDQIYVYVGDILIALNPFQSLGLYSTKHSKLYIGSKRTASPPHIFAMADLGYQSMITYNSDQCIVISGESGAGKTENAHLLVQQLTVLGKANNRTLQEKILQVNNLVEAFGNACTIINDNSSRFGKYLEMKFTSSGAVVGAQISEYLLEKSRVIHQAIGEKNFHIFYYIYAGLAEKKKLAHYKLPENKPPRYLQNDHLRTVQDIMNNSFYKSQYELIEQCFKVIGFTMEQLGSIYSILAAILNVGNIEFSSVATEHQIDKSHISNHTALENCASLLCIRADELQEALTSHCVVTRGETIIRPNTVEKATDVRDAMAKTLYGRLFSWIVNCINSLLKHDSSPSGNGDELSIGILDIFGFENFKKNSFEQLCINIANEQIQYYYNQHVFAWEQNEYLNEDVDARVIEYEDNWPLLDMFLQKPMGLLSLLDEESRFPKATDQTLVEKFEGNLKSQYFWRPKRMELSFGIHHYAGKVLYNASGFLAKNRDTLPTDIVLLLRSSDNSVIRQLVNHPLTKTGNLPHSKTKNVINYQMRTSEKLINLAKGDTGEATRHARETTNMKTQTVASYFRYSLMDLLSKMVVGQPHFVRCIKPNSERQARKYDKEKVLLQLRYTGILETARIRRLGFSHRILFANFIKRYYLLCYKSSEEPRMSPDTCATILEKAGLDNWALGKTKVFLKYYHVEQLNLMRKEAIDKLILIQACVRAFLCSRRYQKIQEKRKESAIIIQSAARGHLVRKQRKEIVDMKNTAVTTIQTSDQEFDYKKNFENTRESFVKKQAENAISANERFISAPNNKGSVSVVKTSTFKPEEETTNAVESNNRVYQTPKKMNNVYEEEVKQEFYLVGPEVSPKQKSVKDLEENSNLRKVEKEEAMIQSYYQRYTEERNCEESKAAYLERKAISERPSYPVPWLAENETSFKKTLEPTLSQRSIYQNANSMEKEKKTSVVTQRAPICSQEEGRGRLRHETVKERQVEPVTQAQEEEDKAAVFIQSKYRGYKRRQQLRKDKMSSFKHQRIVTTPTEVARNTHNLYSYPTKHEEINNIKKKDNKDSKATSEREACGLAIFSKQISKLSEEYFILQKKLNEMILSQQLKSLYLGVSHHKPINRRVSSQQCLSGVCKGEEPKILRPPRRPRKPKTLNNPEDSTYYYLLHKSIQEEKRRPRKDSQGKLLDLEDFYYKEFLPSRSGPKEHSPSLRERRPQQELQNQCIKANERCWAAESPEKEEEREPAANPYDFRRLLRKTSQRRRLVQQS
T38 sequence (O14976 whole entry): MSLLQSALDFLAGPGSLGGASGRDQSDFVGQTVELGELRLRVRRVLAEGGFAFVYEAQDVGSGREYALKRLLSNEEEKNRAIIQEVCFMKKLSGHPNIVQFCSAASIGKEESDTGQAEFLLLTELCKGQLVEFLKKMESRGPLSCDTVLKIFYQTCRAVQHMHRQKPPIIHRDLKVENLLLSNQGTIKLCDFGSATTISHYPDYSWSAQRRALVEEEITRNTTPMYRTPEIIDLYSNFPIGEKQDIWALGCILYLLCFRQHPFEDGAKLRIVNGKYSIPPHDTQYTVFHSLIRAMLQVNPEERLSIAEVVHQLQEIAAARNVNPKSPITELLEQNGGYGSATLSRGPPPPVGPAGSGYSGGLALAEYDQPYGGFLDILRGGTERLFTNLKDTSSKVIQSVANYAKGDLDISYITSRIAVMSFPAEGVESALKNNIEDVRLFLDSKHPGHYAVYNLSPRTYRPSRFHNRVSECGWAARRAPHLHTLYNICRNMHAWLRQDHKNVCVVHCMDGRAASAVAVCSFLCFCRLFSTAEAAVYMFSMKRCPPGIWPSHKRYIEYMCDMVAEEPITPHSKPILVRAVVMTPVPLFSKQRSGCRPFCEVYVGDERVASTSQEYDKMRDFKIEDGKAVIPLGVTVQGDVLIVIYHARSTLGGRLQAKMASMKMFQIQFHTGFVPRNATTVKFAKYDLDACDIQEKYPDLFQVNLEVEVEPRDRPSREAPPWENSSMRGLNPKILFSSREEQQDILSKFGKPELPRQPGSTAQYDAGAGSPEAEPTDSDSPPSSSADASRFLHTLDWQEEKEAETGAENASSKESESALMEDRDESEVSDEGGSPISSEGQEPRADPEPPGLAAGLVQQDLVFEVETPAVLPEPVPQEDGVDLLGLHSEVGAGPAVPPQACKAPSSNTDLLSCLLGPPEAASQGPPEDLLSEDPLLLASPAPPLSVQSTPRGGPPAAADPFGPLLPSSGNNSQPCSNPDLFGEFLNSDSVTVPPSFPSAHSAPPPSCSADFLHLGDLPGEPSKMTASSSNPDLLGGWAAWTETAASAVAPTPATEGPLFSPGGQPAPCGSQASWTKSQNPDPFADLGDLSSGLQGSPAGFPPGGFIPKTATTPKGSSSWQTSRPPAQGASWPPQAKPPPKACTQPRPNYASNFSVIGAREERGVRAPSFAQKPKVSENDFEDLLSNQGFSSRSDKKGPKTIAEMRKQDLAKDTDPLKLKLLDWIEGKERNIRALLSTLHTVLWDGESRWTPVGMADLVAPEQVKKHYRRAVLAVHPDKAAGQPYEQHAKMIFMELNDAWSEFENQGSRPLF
T6 sequence (Q9NYL2 whole entry): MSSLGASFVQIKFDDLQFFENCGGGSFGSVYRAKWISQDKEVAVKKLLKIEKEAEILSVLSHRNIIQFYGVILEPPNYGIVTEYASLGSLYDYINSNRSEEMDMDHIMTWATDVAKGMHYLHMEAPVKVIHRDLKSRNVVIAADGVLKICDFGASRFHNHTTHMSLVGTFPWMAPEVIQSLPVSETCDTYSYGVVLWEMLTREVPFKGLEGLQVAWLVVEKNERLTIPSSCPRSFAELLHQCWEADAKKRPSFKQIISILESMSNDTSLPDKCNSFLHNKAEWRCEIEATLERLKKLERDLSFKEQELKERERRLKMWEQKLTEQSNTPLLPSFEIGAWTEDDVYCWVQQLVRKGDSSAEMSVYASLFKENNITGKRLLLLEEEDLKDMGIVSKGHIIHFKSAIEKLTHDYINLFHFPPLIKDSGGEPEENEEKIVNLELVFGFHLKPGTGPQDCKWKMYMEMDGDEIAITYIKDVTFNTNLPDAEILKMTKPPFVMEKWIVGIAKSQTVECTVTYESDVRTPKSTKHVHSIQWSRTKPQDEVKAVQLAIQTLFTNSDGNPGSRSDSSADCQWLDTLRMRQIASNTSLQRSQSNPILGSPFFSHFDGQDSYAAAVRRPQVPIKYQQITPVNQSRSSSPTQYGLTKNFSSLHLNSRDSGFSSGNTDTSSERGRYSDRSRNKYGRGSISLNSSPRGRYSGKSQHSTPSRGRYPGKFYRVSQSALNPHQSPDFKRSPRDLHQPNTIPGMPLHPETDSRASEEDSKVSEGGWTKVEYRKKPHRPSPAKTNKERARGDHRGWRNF
T15 sequence (O43318 with tags, fused parts or gaps limits assumed): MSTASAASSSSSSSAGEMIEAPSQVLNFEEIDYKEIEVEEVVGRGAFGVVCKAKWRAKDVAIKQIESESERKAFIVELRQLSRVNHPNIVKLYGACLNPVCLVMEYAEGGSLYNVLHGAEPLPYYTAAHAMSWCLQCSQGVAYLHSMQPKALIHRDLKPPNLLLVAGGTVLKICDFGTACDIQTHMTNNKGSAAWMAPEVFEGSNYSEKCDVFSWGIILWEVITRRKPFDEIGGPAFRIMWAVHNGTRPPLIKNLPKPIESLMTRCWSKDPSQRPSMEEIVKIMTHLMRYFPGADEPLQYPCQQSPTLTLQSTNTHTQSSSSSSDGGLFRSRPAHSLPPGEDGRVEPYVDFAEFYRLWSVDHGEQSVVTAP
T28 sequence (Q76MJ5 35-926): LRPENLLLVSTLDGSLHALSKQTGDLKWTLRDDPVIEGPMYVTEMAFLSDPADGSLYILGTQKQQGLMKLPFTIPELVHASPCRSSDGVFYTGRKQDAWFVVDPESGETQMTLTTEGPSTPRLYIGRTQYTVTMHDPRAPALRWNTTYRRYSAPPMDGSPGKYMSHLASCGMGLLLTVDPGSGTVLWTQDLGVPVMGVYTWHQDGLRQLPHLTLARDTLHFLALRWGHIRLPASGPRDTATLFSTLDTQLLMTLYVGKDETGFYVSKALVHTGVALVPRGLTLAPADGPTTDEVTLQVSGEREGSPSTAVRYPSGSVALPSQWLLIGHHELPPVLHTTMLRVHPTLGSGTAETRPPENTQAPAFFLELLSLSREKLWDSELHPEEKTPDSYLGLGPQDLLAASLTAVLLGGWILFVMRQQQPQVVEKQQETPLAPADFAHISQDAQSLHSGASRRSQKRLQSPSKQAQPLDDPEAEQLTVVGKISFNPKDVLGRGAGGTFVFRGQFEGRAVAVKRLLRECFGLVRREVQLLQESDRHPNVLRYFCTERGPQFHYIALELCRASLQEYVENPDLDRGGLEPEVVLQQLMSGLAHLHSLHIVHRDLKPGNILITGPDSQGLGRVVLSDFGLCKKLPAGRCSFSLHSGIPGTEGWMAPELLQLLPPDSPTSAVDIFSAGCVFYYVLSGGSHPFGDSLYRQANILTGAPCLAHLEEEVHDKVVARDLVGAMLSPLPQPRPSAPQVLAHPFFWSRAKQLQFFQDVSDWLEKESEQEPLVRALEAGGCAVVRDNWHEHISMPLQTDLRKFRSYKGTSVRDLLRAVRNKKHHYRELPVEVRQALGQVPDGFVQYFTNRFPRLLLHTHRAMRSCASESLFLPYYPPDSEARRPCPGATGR

`NS(=O)(=O)c1ccc(Nc2ncc3cc4n(c3n2)C2(CCCCC2)C(=O)NN4)cc1` [INX-315] was tested, and the inhibition at 0.1 µM (AMPK (A2/B2/G2)) was 11%, the inhibition at 0.1 µM (BRAF V599E) was -2% and the inhibition at 0.1 µM (CDK13/cyclin K) was 39%. The inhibition at 0.1 µM (ALK T1151_L1152insT) was 6%, the inhibition at 0.1 µM (TTK) was 49% and the inhibition at 0.1 µM (ZAK) was 3%. It also gave an inhibition at 0.1 µM (ALK L1196M) of 7%, an inhibition at 0.1 µM (KIT D816H) of 38% and an inhibition at 0.1 µM (AMPK (A2/B2/G1)) of 9%. It also gave an inhibition at 0.1 µM (TEC) of 4%, an inhibition at 0.1 µM (KIT N822K) of 17% and an inhibition at 0.1 µM (TAOK3 (JIK)) of 4%. The inhibition at 0.1 µM (BRSK2) was 4%, the inhibition at 0.1 µM (CDC7/DBF4) was -1% and the inhibition at 0.1 µM [1] was 14%. For the same compound, the inhibition at 0.1 µM (DDR2 N456S) was 14%, the inhibition at 0.1 µM (DAPK2) was 11% and the inhibition at 0.1 µM (ERN1) was 11%. For the same compound, the inhibition at 0.1 µM (STK38 (NDR)) was 0%, the inhibition at 0.1 µM (PKN2 (PRK2)) was 11% and the inhibition at 0.1 µM (TGFBR2) was 7%. For the same compound, the inhibition at 0.1 µM (EPHA3) was -1%, the inhibition at 0.1 µM (RIPK3) was -9% and the inhibition at 0.1 µM (ADCK3) was 49%. The inhibition at 0.1 µM (MLCK (MLCK2)) was 5%, the inhibition at 0.1 µM (NEK8) was 0% and the inhibition at 0.1 µM (AAK1) was 77%. The inhibition at 0.1 µM (ERN2) was 2%, the inhibition at 0.1 µM (MYO3A (MYO3 alpha)) was 6% and the inhibition at 0.1 µM (KIT A829P) was 28%. It also gave an inhibition at 0.1 µM (CDK11 (Inactive)) of 2%, an inhibition at 0.1 µM (ABL1 H396P) of 12% and an inhibition at 0.1 µM (TNK2 (ACK)) of 0%. It also gave an inhibition at 0.1 µM (KIT Y823D) of 31%, an inhibition at 0.1 µM [2] of 7% and an inhibition at 0.1 µM (VRK2) of 2%. It also gave an inhibition at 0.1 µM (CDK16 (PCTK1)/cyclin Y) of 64% and an inhibition at 0.1 µM (GAK) of 38%.

From PMC10905675, “INX-315, a Selective CDK2 Inhibitor, Induces Cell Cycle Arrest and Senescence in Solid Tumors” (Cancer Discovery, 2023)
